Like-named read-outs stand apart in the source and are kept apart here.
Columns and labels:
HCT116 cells = assay: MTT cell viability assay; assay type: cell-based, human; settings: for IC50: Homo sapiens, HCT-116, read-out: relative IC50 (cell viability)
Procedure: (§1) The HT29 and HCT116 cells (human colon cancer), AGS (human gastric cancer), and MIA PaCa-2 cells (human pancreatic cancer) were purchased from Korean Cell Line Bank (Seoul, Korea). Cancer cells were maintained in RPMI (HT29 and AGS) and DMEM (HCT116 and MIA PaCa-2) culture media supplemented with 10% fetal bovine serum (FBS) and 100 U/mL penicillin and streptomycin at 37 °C in a 95% humidified incubator containing 5% CO2. The cytotoxic effect of the compounds was assessed using the MTT cell viability assay. Briefly, 3 × 10^3 cells/well were grown in 96-well plates for 24 h. After treatment with desired concentration of respective compounds for 24 h or 48 h, the EZ-CYTOTOX (10 µM) reagent was added in each well and incubated for 90 min. The absorbance was measured at 450 nm wavelength using Skanlt software 5.0 (Thermo Scientific, Waltham, MA, USA) installed on a Multiskan GO (Thermo Scientific, Waltham, MA, USA) spectrophotometer. Each experiment was independently repeated three times (n = 12).

HT29 cells = assay: MTT cell viability assay; assay type: cell-based, human; settings: for IC50: Homo sapiens, HT-29, read-out: relative IC50 (cell viability)
Procedure: as §1

SK1 enzyme = target: T1, SK1 enzyme (Homo sapiens, UniProt Q9NYA1); assay: SK activity assay (Adapta screening system); assay type: biochemical; settings: final concentration of 20 μM
T1 construct: purchased Thermo Fisher Scientific
T1 sequence (Q9NYA1 whole entry): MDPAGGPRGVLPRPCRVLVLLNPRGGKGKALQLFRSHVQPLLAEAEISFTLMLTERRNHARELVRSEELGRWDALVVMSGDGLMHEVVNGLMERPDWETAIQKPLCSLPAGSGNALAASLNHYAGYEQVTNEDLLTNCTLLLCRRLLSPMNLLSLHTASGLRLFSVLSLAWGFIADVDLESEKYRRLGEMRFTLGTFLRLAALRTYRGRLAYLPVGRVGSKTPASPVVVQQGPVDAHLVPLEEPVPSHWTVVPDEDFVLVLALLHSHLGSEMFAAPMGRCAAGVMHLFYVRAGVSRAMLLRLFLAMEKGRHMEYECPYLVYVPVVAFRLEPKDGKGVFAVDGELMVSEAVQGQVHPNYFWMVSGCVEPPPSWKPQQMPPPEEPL
Procedure: The effect of compounds in sphingosine kinase activity was examined using the […] screening system (Thermo Fisher Scientific System, Waltham, MA, USA). The kinase inhibition ability of compounds 1-11 along with RB005 was measured with final concentration of 20 μM. […] The data were presented as percentage inhibition of SK enzyme by individual compounds.

S1P in HCT116 cells = assay: S1P ELISA of cell lysate; assay type: cell-based, human
Procedure: (§2) The cellular levels of S1P, sphingosine, and ceramide were detected using an ELISA assay kit (MyBioSource, Inc., San Diego, CA, USA) according to the manufacturer’s instruction. For S1P ELISA, 100 µL cell lysates or standards were added in pre-coated ELISA wells, incubated for 90 min at 37 °C, and treated with 1x biotinylated anti S1P antibody for 1 h. Following treatment of HRP conjugated secondary antibody, the substrate was added and allowed to change the color for 15 min; then, the stop solution was added and absorbance was measured at 450 nm using a Multiskan GO (Thermo Scientific, Waltham, MA, USA) microplate spectrophotometer. […] A stop solution (50 µL) was added to each well, and optical density was measured at 450 nm using a microplate reader. […] After incubation, 50 µL substrate A and B was added to the plate and incubated at 37 °C for 20 min; a stop solution (50 µL) was added to each well and optical density was determined at 450 nm using a microplate reader. The concentration of S1P, sphingosine, and ceramide were calculated as ng/mL using respective standard curves constructed by Skanlt microplate reader software 5.0 (Thermo Scientific, Waltham, MA, USA).

[1] = test system: sphingosine in HCT116 cells; assay: Sphingosine ELISA of cell lysate; assay type: cell-based, human; settings: 24 h, vs nontreated control
Procedure: as §2

PP2A in HCT116 cells = target: T2, PP2A in HCT116 cells (Homo sapiens, UniProt P67775); assay: PP2A activity assay (immunoprecipitation kit); assay type: cell-based; settings: HCT116, 24 h, 20 µM of compounds 10, 11 and 13; vs nontreated control cells
T2 construct: endogenous in cells; host or cells: HCT116
T2 sequence (P67775 whole entry): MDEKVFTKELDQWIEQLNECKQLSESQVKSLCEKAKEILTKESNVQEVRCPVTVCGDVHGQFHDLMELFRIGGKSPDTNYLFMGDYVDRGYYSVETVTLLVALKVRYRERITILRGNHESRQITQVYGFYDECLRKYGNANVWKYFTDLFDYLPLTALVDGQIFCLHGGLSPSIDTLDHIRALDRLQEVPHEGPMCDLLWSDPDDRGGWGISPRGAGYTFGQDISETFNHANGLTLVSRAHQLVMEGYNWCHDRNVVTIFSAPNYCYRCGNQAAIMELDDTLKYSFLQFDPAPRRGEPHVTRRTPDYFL
Procedure: The activity of PP2A was measured by using the PP2A kit according to the manufacturer’s instruction. The cell lysate was incubated with anti PP2A, C subunit antibody, and protein A agarose slurry for 2 h at 4 °C. The phosphopeptide solution (60 µL) was mixed and incubated at 30 °C for 10 min in a shaker. After a brief centrifuge, a 25 µL sample was liquated in ½ volume microplate and 100 µL malachite green phosphate detection working solution was added. After color development, absorbance was taken at 650 nm in a Multiskan GO microplate reader. A phosphate standard curve was constructed using phosphate standard, and results were calculated using this standard curve. This experiment was repeated three times (n = 6).

[2] = test system: AKT and ERK phosphorylation in HCT116 cells; assay: Western blotting of pAKT and pERK; assay type: cell-based, human; settings: HCT116, 20 µM
Procedure: The cell lysate was prepared after successive treatment using mammalian protein extraction buffer (Organic buffer + 10 mM NaCl + detergent pH 7.5) mixed with 1% protease/phosphatase inhibitor cocktail; protein was quantified with BCA assay, boiled at 95 °C for 10 min by adding sample loading buffer, separated using SDS-PAGE, and transferred into methanol-activated PVDF membrane. Primary antibodies were probed overnight in PVDF membrane at 4 °C and […] with subsequent HRP anti-mouse and anti-rabbit secondary antibodies at room temperature. Then, membranes were washed with TBST buffer, and images were detected by Amersham Imager 680 (GE Healthcare; Leiden, WZ, The Netherlands) using ECL solution. Band intensities were analyzed and quantified using Image J software (version 1.53i).

CYP3A4 = target: T3, CYP3A4 (Homo sapiens, UniProt P08684); assay: Inhibition of CYP enzymes activity, human liver microsomes; assay type: in vitro ADME; settings: human liver microsomes 0.25 mg/mL, 10 μM, midazolam substrate
T3 construct: Human liver microsomes (0.25 mg/mL); from tissue; host or cells: human liver microsomes
T3 sequence (P08684 whole entry): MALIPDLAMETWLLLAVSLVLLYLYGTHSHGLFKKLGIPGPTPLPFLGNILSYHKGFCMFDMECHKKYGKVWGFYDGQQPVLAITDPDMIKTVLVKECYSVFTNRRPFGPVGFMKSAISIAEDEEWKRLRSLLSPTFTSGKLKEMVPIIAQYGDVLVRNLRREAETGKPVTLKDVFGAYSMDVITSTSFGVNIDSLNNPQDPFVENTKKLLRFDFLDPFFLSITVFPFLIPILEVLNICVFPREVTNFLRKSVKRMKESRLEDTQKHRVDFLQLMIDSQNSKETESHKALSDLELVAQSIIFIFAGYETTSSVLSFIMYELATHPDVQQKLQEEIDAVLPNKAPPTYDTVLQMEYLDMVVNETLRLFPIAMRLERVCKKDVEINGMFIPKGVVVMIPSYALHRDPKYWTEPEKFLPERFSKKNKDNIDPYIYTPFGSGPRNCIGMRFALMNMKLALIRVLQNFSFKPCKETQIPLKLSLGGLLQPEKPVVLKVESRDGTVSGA
Procedure: (§3) By simultaneously analyzing metabolites, the ability of the six compounds to inhibit drug metabolism enzymes was evaluated.
(§4) Metabolites of each CYP coenzyme indicator drug generated through the above reaction were analyzed using the Shimadzu Nexera XR system and TSQ vantage (Thermo). The HPLC column was a Kinetex C18 column (2.1 × 100 mm^2, 2.6 μm particle size; Phenomenex, Torrance, CA, USA), and the mobile phase was distilled water (A) containing 0.1% formic acid and acetonitrile (B) containing 0.1% formic acid. […] The generated metabolites were quantified using MRM (Multiple Reaction Monitoring) quantification modes, and data were analyzed using Xcalibur (version 1.6.1).

[3] = In vitro metabolic stability in liver microsomes; assay type: in vitro ADME, rat
CYP2C19 = CYP2C19 (Homo sapiens, UniProt P33261); assay: Inhibition of CYP enzymes activity, human liver microsomes; settings: human liver microsomes 0.25 mg/mL, 10 μM, S-mephenytoin substrate
CYP2C19, sequence (P33261 whole entry): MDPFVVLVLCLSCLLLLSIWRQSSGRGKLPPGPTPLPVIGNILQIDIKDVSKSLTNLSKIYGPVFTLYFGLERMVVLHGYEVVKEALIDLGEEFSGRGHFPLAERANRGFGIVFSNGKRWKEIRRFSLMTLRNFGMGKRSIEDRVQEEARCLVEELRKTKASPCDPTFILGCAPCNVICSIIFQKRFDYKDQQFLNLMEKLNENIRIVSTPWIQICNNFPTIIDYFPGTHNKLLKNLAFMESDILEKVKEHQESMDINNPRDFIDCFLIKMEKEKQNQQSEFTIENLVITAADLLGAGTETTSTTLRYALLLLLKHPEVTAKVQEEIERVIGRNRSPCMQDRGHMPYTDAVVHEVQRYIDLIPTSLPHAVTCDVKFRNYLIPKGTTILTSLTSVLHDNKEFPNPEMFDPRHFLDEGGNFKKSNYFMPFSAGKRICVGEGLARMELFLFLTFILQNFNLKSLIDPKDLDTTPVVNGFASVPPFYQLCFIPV
Procedure: as §3, §4

In the case of CCCCCCCOc1ccc(CCN2CCN(CCO)CC2)cc1 [Compound 10, 2-(4-(4-(Heptyloxy)phenethyl)piperazin-1-yl)ethanol], the “cytotoxic effect, comparison” value (HCT116 cells; HCT116, 10, 20 and 40 µM, Supplementary Figure S1C) is reported as “higher than compounds 11, 13, and PF-543”, the “cytotoxic effect (cell viability)” value (HCT116 cells; HCT116, 20 and 40 µM, 24 h, Figure 2B) is reported as “significant cytotoxic effects in both 20 and 40 µM concentrations” and the IC50 (HCT116 cells; HCT116, 24 h treatment) is reported as 10.9 µM. The IC50 (HCT116 cells; HCT116, 48 h treatment, 2.5–40 µM) was 8.69 µM, the “cytotoxic effect (cell viability)” value (HT29 cells; HT29, 20 and 40 µM, 24 h, Figure 2A) was “more cytotoxic than RB005 and 5-FU” and the IC50 (HT29 cells; HT29, 24 h treatment) was 10.5 µM. For the same compound, the IC50 (HT29 cells; HT29, 48 h treatment, 2.5–40 µM) was 6.22 µM, the inhibition at 20 µM (SK1 enzyme) was 20% and the S1P level decrease (S1P in HCT116 cells) was 42%. For the same compound, the S1P level (S1P in HCT116 cells; HCT116, 10 and 20 µM, 24 h, vs nontreated control) was “significantly reduces”, the sphingosine level increase ([1]; HCT116, 10 µM) was 1.42 fold and the sphingosine level increase ([1]; HCT116, 20 µM) was 1.74 fold. The PP2A activity increase (PP2A in HCT116 cells) was 1.73 fold, the “phosphorylation of AKT and ERK” value [2] was “significantly reduced phosphorylation of AKT and ERK” and the “CYP3A4 activity (% of control activity)” value (CYP3A4) was over 100%. The “liver microsomal stability, Rat (%)” value ([3]; % remaining after 30 min, NADPH) was 10.2%, the “liver microsomal stability (in words)” value ([3]; rat) was “unstable” and the “CYP2C19 activity (% of control activity)” value (CYP2C19) was 96.5%.

Source: publication PMC8779255, “Determining the Anticancer Activity of Sphingosine Kinase Inhibitors Containing Heteroatoms in Their Tail Structure” (Pharmaceutics, 2022)
